Our source for the IC50 values is patent US7238813B2, “Chemical compounds” (Smithkline Beecham Corporation, priority 2000, dated 2007).

For one experiment, the target named is Recombinant GST-Tie2 (Homo sapiens, UniProt Q02763). As to the kind of experiment: Tie2 fluorescence polarization kinase activity assay (TIE2-FP). The note with it: starred examples, 200 μM ATP, read-out: TIE2-E (Tie-2 activities run utilizing Tie2-FP assay). The format is biochemical. The method, then: Tie2 Fluorescence Polarization Kinase Activity Assay: (TIE2-FP)
Activation of Recombinant Tie2 Activation:
Recombinant GST-Tie2 was activated by incubating the enzyme in 20 mM Tris-HCl, pH 7.5, 12 mM MgCl2, 100 mM NaCl, 20 μM sodium vanidate, 1 mM DTT and 300 μM ATP at room temperature for 2 hours. The activation mixture was then passed through a NAP-25 desalting column (Pharmacia Biotech cat. no. 17-0852-02) to remove the free ATP. The activated enzyme was stored as aliquots at −80° C. in 20 mM Tris-HCl, pH 7.5 and 100 mM NaCl.
The final assay conditions were 50 mM HEPES, pH 7.5, 5% DMSO (when screening compounds), 200 μM ATP, 5 mM MgCl2, 1 mM DTT, 50 μM sodium vanidate, 1 nM activated enzyme, and 200 μM peptide. IC50's of compounds were measured under subsaturating ATP (200 μM) and varing concentrations of activated Tie2 and peptide substrate ([…]-OH; MW 1873 Da, TFA salt). Panvera Antiphosphotyrosine antibody (Cat#P2840) and PTK Green Tracer (Cat#P2842) were used to detect the phosphorylated peptide. Polarization was measured on a TECAN Polarion in 138-second cycles for 30 minutes at room temperature. IC50's were then determined from the % polarization using normal calculation methods.
For orientation: In fluorescence polarisation assays a small probe gives low polarisation when free and higher when bound to something large.

A further experiment deals with T1, GST-VEGFR2 (Homo sapiens, UniProt P35968).
T1 construct: GST-VEGFR2, baculovirus expressed recombinant constructs of the intracellular domains of human TIE2 tagged by GST; made in house
As to the kind of experiment: VEGF-R2 enzyme assay (VEGF-E), LANCE method. Type of experiment: biochemical. The conditions noted are these: 75 μM ATP. For orientation: In TR-FRET formats the signal depends on donor and acceptor labels being close together.

Chain of Recombinant GST-Tie2 (Q02763 23-1124): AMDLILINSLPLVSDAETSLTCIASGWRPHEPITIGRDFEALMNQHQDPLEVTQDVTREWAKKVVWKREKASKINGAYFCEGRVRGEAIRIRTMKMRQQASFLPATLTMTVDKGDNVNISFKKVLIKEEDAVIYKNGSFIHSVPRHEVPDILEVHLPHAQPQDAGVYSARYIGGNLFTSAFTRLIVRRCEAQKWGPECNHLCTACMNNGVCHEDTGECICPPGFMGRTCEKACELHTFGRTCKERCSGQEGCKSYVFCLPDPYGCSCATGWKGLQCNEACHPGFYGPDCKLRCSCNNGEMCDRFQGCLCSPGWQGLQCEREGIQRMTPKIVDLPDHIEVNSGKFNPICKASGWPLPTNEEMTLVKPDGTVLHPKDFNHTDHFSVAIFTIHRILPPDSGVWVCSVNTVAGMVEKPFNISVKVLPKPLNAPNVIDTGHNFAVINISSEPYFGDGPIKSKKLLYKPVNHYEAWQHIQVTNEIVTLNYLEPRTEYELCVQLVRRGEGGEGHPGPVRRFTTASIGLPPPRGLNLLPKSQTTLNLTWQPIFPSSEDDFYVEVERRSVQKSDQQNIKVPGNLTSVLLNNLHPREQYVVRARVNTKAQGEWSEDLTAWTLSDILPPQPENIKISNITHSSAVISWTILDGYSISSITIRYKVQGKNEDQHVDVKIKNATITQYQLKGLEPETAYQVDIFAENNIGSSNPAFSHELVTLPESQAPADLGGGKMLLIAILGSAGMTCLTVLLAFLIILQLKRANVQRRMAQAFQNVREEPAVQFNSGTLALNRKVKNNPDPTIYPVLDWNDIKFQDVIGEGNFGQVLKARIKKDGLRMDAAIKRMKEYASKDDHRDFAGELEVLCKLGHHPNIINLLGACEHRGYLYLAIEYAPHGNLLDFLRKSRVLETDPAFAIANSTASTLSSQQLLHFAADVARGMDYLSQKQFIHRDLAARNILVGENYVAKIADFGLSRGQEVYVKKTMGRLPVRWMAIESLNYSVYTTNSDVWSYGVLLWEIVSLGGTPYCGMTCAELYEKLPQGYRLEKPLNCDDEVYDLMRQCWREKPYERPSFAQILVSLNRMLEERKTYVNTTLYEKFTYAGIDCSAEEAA
T1 sequence (P35968 786-1356 limits assumed): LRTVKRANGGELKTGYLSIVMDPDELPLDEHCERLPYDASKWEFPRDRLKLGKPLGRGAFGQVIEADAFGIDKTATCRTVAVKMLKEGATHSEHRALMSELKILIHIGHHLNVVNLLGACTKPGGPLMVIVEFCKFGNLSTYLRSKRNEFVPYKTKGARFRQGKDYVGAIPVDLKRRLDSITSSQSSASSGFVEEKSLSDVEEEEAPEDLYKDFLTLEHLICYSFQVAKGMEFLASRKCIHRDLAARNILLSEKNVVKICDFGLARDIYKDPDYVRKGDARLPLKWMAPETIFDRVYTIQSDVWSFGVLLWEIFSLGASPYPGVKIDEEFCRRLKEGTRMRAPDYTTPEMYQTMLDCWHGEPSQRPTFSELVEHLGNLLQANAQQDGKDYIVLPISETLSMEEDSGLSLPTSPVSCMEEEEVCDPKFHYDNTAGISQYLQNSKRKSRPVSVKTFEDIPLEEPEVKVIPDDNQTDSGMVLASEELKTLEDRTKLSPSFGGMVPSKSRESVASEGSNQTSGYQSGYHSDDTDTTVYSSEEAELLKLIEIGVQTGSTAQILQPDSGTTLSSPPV

Consider `COCCOCC(=O)Nc1nc2cc(Oc3ccc(NC(=O)Nc4nnc(C)s4)cc3)ccc2[nH]1` [Example 155, N-(5-(4-((5-Methyl-1,3,4-thiadiazol-2-yl)aminocarbonylamino)phenoxy)-1H-benzimidazol-2-yl)(2-(methoxy)ethoxy)acetamide], for which the figures for the IC50 at Recombinant GST-Tie2 and against GST-VEGFR2 were 1 to 10 µM and 0.1 to 1 µM, respectively.

For the compound `CC(=O)Nc1nc2cc(Oc3ccc(NC(=O)Nc4nc(C(C)(C)C)cs4)cc3)ccc2[nH]1` [Example 146, N-(5-(4-((4-tert-Butylthiazol-2-yl)aminocarbonylamino)phenoxy)-1H-benzimidazol-2-yl)acetamide], the values for the IC50 on Recombinant GST-Tie2 and on GST-VEGFR2 were 0.1 to 1 µM and less than 0.1 µM, respectively.

`COCCOCC(=O)Nc1nc2cc(Oc3ccc(NC(=O)Nc4nccs4)cc3)ccc2[nH]1` [Example 151, N-(5-(4-((Thiazol-2-yl)aminocarbonylamino)phenoxy)-1H-benzimidazol-2-yl)(2-(methoxy)ethoxy)acetamide]: the IC50 at Recombinant GST-Tie2 was in the range of 1 to 10 µM; on GST-VEGFR2, 0.1 to 1 µM.

As to `CCc1nnc(NC(=O)Nc2ccc(Oc3ccc4[nH]c(NC(=O)COCCOC)nc4c3)cc2)s1` [Example 156, N-(5-(4-((5-Ethyl-1,3,4-thiadiazol-2-yl)aminocarbonylamino)phenoxy)-1H-benzimidazol-2-yl)(2-(methoxy)ethoxy)acetamide], the IC50 was 0.1 to 1 µM at Recombinant GST-Tie2 and less than 0.1 µM against GST-VEGFR2.

With `COCCOCC(=O)Nc1nc2cc(Oc3ccc(NC(=O)Nc4nncs4)cc3)ccc2[nH]1` [Example 152, N-(5-(4-((1,3,4-Thiadiazol-2-yl)aminocarbonylamino)phenoxy)-1H-benzimidazol-2-yl)(2-(methoxy)ethoxy)acetamide], the IC50 at Recombinant GST-Tie2 and against GST-VEGFR2 was 1 to 10 µM in each case.

In the case of `COCCOCC(=O)Nc1nc2cc(Oc3ccc(NC(=O)Nc4nc(C(C)(C)C)cs4)cc3)ccc2[nH]1` [Example 158, N-(5-(4-((4-tert-Butylthiazol-2-yl)aminocarbonylamino)phenoxy)-1H-benzimidazol-2-yl)(2-(methoxy)ethoxy)acetamide], the IC50 at Recombinant GST-Tie2 is 0.1 to 1 µM; against GST-VEGFR2, less than 0.1 µM.
